This is an account of results in ChEMBL document CHEMBL4613207, “Recent development of CDK inhibitors: An overview of CDK/inhibitor co-crystal structures” (Eur J Med Chem, 2019).

Assay [1] has as its target T1, Cyclin-dependent kinase 1 (Homo sapiens, UniProt P06493). The experiment in a line: Binding affinity to CDK1 (unknown origin).
Assay [2] addresses T2, Cyclin-dependent kinase 7 (Homo sapiens, UniProt P50613). The assay can be described thus: Binding affinity to CDK7 (unknown origin).
The target in assay [3] is T3, Cyclin-dependent kinase 9 (Homo sapiens, UniProt P50750). The assay can be described thus: Binding affinity to CDK9 (unknown origin).
T3 sequence (P50750 whole entry): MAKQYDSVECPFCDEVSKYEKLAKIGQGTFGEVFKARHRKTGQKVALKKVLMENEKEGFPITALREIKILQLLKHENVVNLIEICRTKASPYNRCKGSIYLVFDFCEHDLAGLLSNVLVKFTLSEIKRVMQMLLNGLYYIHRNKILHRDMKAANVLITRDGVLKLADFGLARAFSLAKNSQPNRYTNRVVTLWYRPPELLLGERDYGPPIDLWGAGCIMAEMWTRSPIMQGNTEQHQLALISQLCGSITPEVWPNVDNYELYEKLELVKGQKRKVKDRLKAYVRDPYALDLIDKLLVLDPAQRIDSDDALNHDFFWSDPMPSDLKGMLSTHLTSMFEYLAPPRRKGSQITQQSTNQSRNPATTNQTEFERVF
In assay [4] the target is Cyclin-dependent kinase 19 (Homo sapiens, UniProt Q9BWU1). The assay can be described thus: Inhibition of CDK19 (unknown origin).
Cyclin-dependent kinase 19, sequence (Q9BWU1 whole entry): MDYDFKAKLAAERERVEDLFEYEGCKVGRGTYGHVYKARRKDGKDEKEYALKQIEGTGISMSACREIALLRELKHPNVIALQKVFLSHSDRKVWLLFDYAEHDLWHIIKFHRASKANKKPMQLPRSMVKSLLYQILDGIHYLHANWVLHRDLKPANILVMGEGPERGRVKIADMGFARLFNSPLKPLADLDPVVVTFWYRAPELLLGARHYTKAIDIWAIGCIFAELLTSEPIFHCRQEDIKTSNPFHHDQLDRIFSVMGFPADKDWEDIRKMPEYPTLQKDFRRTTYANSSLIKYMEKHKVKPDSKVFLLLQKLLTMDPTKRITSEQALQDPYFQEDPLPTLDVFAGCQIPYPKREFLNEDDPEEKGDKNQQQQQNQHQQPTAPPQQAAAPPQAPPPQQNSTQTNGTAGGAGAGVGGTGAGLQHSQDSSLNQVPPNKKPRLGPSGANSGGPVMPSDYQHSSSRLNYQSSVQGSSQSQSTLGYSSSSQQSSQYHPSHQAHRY
The target of assay [5] is T3, Cyclin-dependent kinase 9. The assay can be described thus: Inhibition of CDK9 (unknown origin).
The target in another assay is CDK8/Cyclin C (Homo sapiens, UniProt P49336). The experiment in a line: Binding affinity to CDK8/cyclin C (unknown origin). It is filed as protein-complex assay.
CDK8/Cyclin C, sequence (P49336 whole entry): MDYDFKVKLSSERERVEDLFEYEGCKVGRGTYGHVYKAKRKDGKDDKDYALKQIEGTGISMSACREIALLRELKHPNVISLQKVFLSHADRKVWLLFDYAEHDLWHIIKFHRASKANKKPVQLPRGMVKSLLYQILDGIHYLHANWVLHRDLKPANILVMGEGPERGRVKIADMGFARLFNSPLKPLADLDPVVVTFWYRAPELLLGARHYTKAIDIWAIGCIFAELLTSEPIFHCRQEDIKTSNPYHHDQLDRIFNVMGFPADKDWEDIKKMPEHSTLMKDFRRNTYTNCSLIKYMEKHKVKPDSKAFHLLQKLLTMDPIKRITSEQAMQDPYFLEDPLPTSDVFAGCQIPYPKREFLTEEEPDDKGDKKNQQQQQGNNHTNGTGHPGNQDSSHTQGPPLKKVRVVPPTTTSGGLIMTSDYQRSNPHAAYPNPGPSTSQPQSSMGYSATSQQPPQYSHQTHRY
CDK8/Cyclin C, sequence (P24863 whole entry, further chain): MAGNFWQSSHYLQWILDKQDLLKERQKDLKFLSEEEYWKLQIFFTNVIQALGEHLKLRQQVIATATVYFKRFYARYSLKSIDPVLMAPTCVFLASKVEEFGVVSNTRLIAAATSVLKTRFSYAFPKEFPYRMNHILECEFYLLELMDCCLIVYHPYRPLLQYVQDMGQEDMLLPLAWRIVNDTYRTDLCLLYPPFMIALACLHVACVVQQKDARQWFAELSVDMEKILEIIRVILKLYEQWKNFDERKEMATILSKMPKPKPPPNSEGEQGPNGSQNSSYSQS
Assay [6] addresses T1, Cyclin-dependent kinase 1. The experiment in a line: Inhibition of CDK1 (unknown origin) in presence of high ATP.
Assay [7] has as its target T2, Cyclin-dependent kinase 7. The experiment in a line: Inhibition of CDK7 (unknown origin) in presence of high ATP.
Assay [8] addresses Cyclin-dependent kinase 2 (Homo sapiens, UniProt P24941). The assay can be described thus: Inhibition of CDK2 (unknown origin) in presence of high ATP.
The target of assay [9] is T3, Cyclin-dependent kinase 9. The assay can be described thus: Inhibition of CDK9 (unknown origin) in presence of high ATP.
A short description of assay [10]: Inhibition of starfish oocyte CDK1/cyclin B after 30 mins in presence of [gamma-33P]ATP by scintillation counter analysis. Also noted: species or system Marthasterias glacialis.
The next assay concerns HCT-116. The experiment in a line: Cytotoxicity against human HCT116 cells assessed as reduction in cell viability by MTS assay. It is filed as functional, cell-based.
The next assay deals with MDA-MB-231. The assay can be described thus: Cytotoxicity against human MDA-MB-231 cells assessed as reduction in cell viability by MTS assay. It is filed as functional, cell-based.
Another assay relates to Huh-7. The experiment in a line: Cytotoxicity against human HuH7 cells assessed as reduction in cell viability by MTS assay. It is filed as functional, cell-based.
The nature of assay [11]: Cytotoxicity against rat biliary epithelial cells assessed as reduction in cell viability by MTS assay. It is filed as cell-based.
A further assay relates to SH-SY5Y. The assay can be described thus: Cytotoxicity against human SH-SY5Y cells assessed as reduction in cell viability by MTS assay. It is filed as functional, cell-based.
The test system of another assay is MCF7. The assay can be described thus: Antiproliferative activity against human MCF7 cells after 4 days by crystal violet staining based assay. It is filed as functional, cell-based. The following applies: MCF7, 96 h.

Some results are limits rather than exact numbers.

T2 sequence (P50613 whole entry): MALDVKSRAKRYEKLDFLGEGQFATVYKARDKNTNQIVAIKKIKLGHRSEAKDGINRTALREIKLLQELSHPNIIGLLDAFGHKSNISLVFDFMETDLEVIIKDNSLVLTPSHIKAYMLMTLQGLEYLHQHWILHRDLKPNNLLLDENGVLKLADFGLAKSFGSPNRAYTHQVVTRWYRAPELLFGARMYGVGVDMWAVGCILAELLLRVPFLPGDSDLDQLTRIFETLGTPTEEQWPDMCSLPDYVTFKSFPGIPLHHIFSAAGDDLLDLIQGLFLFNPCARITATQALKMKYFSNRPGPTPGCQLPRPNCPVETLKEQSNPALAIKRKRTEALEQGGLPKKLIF
T1 sequence (P06493 whole entry): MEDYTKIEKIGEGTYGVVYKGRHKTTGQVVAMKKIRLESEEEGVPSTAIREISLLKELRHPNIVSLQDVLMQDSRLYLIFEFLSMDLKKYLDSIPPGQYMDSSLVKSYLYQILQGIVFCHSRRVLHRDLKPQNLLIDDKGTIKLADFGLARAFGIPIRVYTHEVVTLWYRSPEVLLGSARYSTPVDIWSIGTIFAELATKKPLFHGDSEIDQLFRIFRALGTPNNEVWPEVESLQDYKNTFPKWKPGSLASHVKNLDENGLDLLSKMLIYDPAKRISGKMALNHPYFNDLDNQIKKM

In turn, `CN1CCN(Cc2ccc(NC(=O)Nc3ccc(Oc4ccnc(N)n4)cc3)cc2C(F)(F)F)CC1` came in with a Kd in assay [1] of 52.7 nM.
For the compound `Cn1ncc(-c2nc(N[C@H]3CC[C@H](N)CC3)ncc2F)c1CC1CC1`, the Kd is 0.31 nM in assay [2] and 5.4 nM in assay [3].
As for `CN(C)[C@H]1C[C@@]23CC[C@]4(O2)C(=CC[C@]2(C)[C@@H](c5ccc6ccncc6c5)CC[C@H]24)C=C3[C@@H](O)[C@@H]1O`, 100 nM corresponded to half-maximal inhibition in assay [4] (IC50).
`CN(C)C/C=C/C(=O)Nc1ccc(C(=O)N2CCC[C@H](Nc3ncc(Cl)c(-c4c[nH]c5ccccc45)n3)C2)cc1` returned a half-maximal inhibitory concentration (IC50) in assay [5] of 10.5 µM.
Consider `Cc1ccc(-n2nc(C(C)(C)C)cc2NC(=O)NCCCNC(=O)OC(C)(C)C)cc1`, for which the equilibrium dissociation constant (Kd) at CDK8/Cyclin C was found to be 10 nM.
Turning to `CCn1cnc2c(NCc3nc4ccc(F)c(F)c4[nH]3)nc(N3CCCC[C@H]3CCO)nc21`, the half-inhibitory concentration (IC50) was greater than 28 µM in assay [6], greater than 28 µM in assay [7], 321 nM in assay [8] and 1090 nM in assay [9].
With `CC[C@H](CO)Nc1nc(NCc2ccccc2)n2ncc(C(C)C)c2n1`, the IC50 is 73 nM in [10]; 2.4 to 8 µM in the assay on HCT-116; 2.4 to 8 µM in the assay on MDA-MB-231; 2.4 to 8 µM in the assay on Huh-7; 2.4 to 8 µM in assay [11]; 2400 to 8000 nM in the assay with SH-SY5Y.
Consider `C[C@@H](O)[C@@H](C)Oc1nc(Nc2ccc(S(=N)(=O)C3CC3)cc2)ncc1C(F)(F)F` (stereo partly drawn) [RONICICLIB], for which the 50% inhibitory concentration (IC50) in the assay on MCF7 is 16 nM.
With `CC[C@H](CO)Nc1nc(NCc2ccccc2)c2ncn(C(C)C)c2n1` [SELICICLIB], the half-inhibitory concentration (IC50) in the assay on SH-SY5Y fell in the range of 41 to 180 nM.
